Experimental findings from patent US10913781B2, “Pepducin design and use” (Tufts Medical Center, Inc., priority 2011, dated 2021) are described below.

The test system of test [1] is A549 xenografts. It counts as in vivo, mouse. How it is done: FIG. 13 illustrates that monotherapy with PAR1-i3 pepducins inhibits tumor progression of A549 xenografts. (A) and (B): A549 mice treated with vehicle, P1pal-7, P1pal-i1-11, P1pal-10S, X1/2-i1, X1/2-i3, or Avastin. Each time point represents the mean±SE. (C): Final tumor volume at the completion of the experiment was calculated as a percentage of untreated vehicle control. (D): Serum-starved A549 adenocarcinoma cells were pretreated with P1pal-7, P1pal-10S, P1pal-i1-11, vehicle, or PD98059 and stimulated with thrombin. VEGF production was assessed by enzyme-linked immunosorbent assay. Data are expressed as mean±SD (*P<0.05, **P<0.01).
PAR1 expression level is correlated with reduced survival of patients with NSCLC. To define the relative importance of PAR1 in lung tumor progression, in vivo mouse models were used. […] An A549 lung adenocarcinoma xenograft model in nude mice was used to evaluate monotherapy with P1pal-7, P1pal-10S, P1pal-i1-11, or the VEGF antagonist Avastin.

Test [2] has as its target T1, PAR1 (Homo sapiens, UniProt P25116).
T1 sequence (P25116 22-425): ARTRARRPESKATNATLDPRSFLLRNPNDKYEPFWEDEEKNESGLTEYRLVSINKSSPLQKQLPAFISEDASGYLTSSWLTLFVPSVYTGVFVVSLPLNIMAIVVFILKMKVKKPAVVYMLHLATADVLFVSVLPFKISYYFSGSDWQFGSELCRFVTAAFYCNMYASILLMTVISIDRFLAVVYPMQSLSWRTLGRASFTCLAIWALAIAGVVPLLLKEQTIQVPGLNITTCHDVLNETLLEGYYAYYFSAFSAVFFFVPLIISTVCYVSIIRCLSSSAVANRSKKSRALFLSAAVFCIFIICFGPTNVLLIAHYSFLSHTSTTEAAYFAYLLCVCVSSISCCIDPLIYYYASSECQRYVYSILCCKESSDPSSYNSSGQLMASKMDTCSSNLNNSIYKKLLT
The test is described as follows: Migration of primary patient lung tumor cells. The class given is cell-based. Details: endogenous in cells; host or cells: A549, HOP62, H1299, H522, H226, HOP92 lung carcinoma lines. On the procedure: FIG. 12 illustrates that PAR1 is a promigratory factor in lung cancer cells. (A-F): Inhibition of lung cancer migration in adenocarcinomas A549, HOP62, H1299 and H522, H226 squamous, and HOP92 large cell using PAR1 pepducins. Pepducins at […] (P1pal-7, P1pal-10S, P1pal-i1-11, or negative control P1pal-19EE) were added to the lower well. (G): Cell from primary lung tumors or nonmalignant control were pretreated with PAR1 pepducins and migration was determined (*P<0.05, **P<0.01).
Further experiments were carried out to determine whether migration of the primary carcinoma cell lines isolated from lung tumors could be inhibited by PAR1 pepducins (FIG. 12G). […] Likewise, the RWJ-56110 small-molecule antagonist of PAR1 (Andrade-Gordon, et al., Proc. Natl Acad Sci USA, 96 (1999), pp. 12257-12262) suppressed up to 55% of the migration of primary lung tumor cells toward NIH-3T3 conditioned media. The PAR1 antagonist pepducin P1pal-7 and P1pal-i1-11 had no effect on the low-expressing PAR1 cell line derived from benign lung tissue, which migrated poorly (FIG. 12G).

For test [3], the target named is T2, PAR4 (Homo sapiens, UniProt Q96RI0).
T2 sequence (Q96RI0 18-385): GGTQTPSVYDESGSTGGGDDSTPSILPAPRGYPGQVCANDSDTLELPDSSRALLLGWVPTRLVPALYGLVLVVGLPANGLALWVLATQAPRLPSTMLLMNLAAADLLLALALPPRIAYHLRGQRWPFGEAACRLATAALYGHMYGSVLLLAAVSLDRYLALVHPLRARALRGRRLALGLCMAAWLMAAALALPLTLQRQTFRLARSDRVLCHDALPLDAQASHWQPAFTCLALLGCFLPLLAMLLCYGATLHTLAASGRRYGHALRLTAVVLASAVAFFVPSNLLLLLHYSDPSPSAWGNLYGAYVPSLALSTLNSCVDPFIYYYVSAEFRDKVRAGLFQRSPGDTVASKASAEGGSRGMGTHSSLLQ
The test is described as follows: [3H]-InsP formation in COS7 cells transfected with PAR4. The class given is cell-based. Details: expressed in transfected cells; host or cells: COS7. The note with it: 100 μM AYPGKF, 30 min. On the procedure: (A) PAR2 antagonist pepducins P2pal-18S and P2pal-14GQ inhibit calcium flux induced by PAR2 (SLIGRL) (SEQ ID NO:4) but not PAR1 (TFLLRN) (SEQ ID NO:2) agonists. SW620 cells were stably transfected with PAR1 and pretreated for 1 min with various concentrations of P2pal-18S or P2pal-14GQ and then stimulated with 30 μM PAR agonist. […] Cells were stimulated with 1 μM TFLLRN (SEQ ID NO:2), 1 μM SLIGRL (SEQ ID NO:4) or 100 μM AYPGKF (SEQ ID NO:5) and [^3H]-InsP formation measured over 30 min. (C) SW620 cells were treated with the indicated concentrations of P2pal-18S or P2pal-14GQ in the upper well of an 8-μm pore Boyden chamber and allowed to migrate for 18 h towards 10 μM of the PAR2 specific agonist SLIGRL in the lower chamber. The migration to RPMI/0.1% FBS represents random migration. (D) Migration of HEK cells transiently transfected with PAR2 (wild-type, WT), or PAR2-R36A/PAR2-RQ toward chemotactic gradients of 30 nM trypsin in the absence or presence of the indicated concentration of P2pal-18S for 18 h in a transwell apparatus ([…]). Data (n=2-4) are mean±SEM. *, P<0.05 and **, P<0.005.

The subject of test [4] is CXCR1/CXCR2. The test is described as follows: Human neutrophil chemotaxis to IL-8. The class given is cell-based. As to conditions: 100 nM IL-8. On the procedure:
(A) Human neutrophils (n=4 normal volunteers) were analyzed for surface expression of human PAR1, PAR2, and PAR4 by flow cytometry with PAR-specific antibodies. […] Chemotaxis index is the ratio of directed versus random migration over 30 min through a 5-μm pore filter.
P2pal-18S had no effect on PAR1-dependent platelet aggregation (FIG. 5A). Neither P2pal-18S nor P2pal-14GQ caused membrane disruption or apoptosis as assessed by propidium iodide uptake in SW620 cells with up to 30 μM concentrations of pepducin (FIG. 5B).

Peptide text beside a SMILES is read from it. * marks the point of attachment. Palmitoyl = CCCCCCCCCCCCCCCC(=O)*

For the molecule `CCCCCCCCCCCCCCCC(=O)N[C@H](C(=O)N[C@@H](CC(C)C)C(=O)N[C@@H](CCCCN)C(=O)N[C@@H](CCSC)C(=O)N[C@@H](CCCCN)C(=O)N[C@H](C(=O)N[C@@H](CCCCN)C(=O)N[C@@H](CCCCN)C(=O)N1CCC[C@H]1C(=O)N[C@@H](C)C(=O)N[C@H](C(N)=O)C(C)C)C(C)C)[C@@H](C)CC` [P1pal-i1-11] (Palmitoyl-ILKMKVKKPAV-NH2), in test [1] (by day 20), the “Early tumor growth blockade” value is on record as “significant blockade of tumor growth”. In test [1] (monotherapy, nude mice), the “Inhibition of tumor progression/growth (final tumor volume vs vehicle)” value is reported as “did not inhibit the long-term growth”. Also, the “Effect on migration of low-expressing PAR1 cell line derived from benign lung tissue” value in test [2] is “no effect”.

`CCCCCCCCCCCCCCCC(=O)N[C@@H](CCCNC(=N)N)C(=O)N[C@@H](CO)C(=O)N[C@@H](CO)C(=O)N[C@@H](C)C(=O)N[C@@H](CCSC)C(=O)N[C@@H](CC(=O)O)C(=O)N[C@@H](CCC(=O)O)C(=O)N[C@@H](CC(N)=O)C(=O)N[C@@H](CO)C(=O)N[C@@H](CCC(=O)O)C(=O)N[C@@H](CCCCN)C(=O)N[C@@H](CCCCN)C(=O)N[C@@H](CCCNC(=N)N)C(=O)N[C@@H](CCCCN)C(=O)N[C@@H](CO)C(=O)N[C@@H](C)C(=O)N[C@H](C(=O)N[C@@H](CCCCN)C(N)=O)[C@@H](C)CC` [P2pal-18S]: the “Inhibition of InsP signaling from PAR4” value in test [3] is “do not inhibit”. Moreover, the “Antagonist activity, neutrophil chemotaxis, CXCR1/2 IL-8 receptors” value in test [4] is given as “no antagonist activity”.
